From ChEMBL document CHEMBL5236665, “Accumulation of lankamycin derivative with a branched-chain sugar from a blocked mutant of chalcose biosynthesis in Streptomyces rochei 7434AN4” (2023)

Key:
Micrococcus luteus [1] = experiment: Antimicrobial activity against Micrococcus luteus assessed as inhibition of microbial growth at 0.03 to 3.33 ug/ml; type: functional; design: scale not given: the % may be the effect or the level left; details: dose 0.03-3.33 µg/ml; at 0.03 to 3.33 µg/mL
Micrococcus luteus [2] = experiment: Antimicrobial activity against Micrococcus luteus assessed as inhibition of microbial growth; type: functional

MIC (Micrococcus luteus [2])	Structure (SMILES)	Activity (Micrococcus luteus [1])
–	CO[C@]1(C)C[C@H](O[C@H]2[C@H](C)[C@@H](O[C@@H]3O[C@H](C)C[C@](O)(C(C)=O)[C@H]3O)[C@@H](C)C[C@](C)(O)C(=O)[C@H](C)[C@@H](OC(C)=O)[C@@H](C)[C@@H]([C@@H](C)[C@H](C)O)OC(=O)[C@@H]2C)O[C@@H](C)[C@H]1OC(C)=O	50%
1 µg/mL	CO[C@H]1C[C@@H](C)O[C@@H](O[C@@H]2[C@@H](C)[C@H](O[C@H]3C[C@@](C)(OC)[C@H](OC(C)=O)[C@H](C)O3)[C@@H](C)C(=O)O[C@H]([C@@H](C)[C@H](C)O)[C@H](C)[C@H](OC(C)=O)[C@@H](C)C(=O)[C@@](C)(O)C[C@@H]2C)[C@@H]1O	–
